In PMC10384010, “Chromatographic Data in Statistical Analysis of BBB Permeability Indices” (Membranes, 2023):

Tests used:
[1] = plasma protein binding, given as fraction; ref Drugbank; cited from earlier work
[2] = Normal-phase TLC on silica gel 60 F254 (Rf); type: physicochemical; conditions: water:methanol:acetonitrile 60:20:20, ammonium acetate pH 7.4
[3] = HPLC on IAM (immobilized artificial membrane) column, retention factor; type: physicochemical; conditions: IAM.PC.DD.2 column; for k(IAM) retention factor: 10 mM phosphate buffer pH 7.4:acetonitrile 80:20; for logkIAM: logarithm of retention factor, phosphate buffer pH 7.4:acetonitrile 80:20
[4] = Reversed-phase TLC on RP-2 silanized plates (Rf); type: physicochemical; conditions: silica gel 60 RP-2 F254 silanized; water:methanol:acetonitrile 60:20:20, ammonium acetate pH 7.4

| Molecule | PB (protein binding) [1] | NP (Rf from NP TLC plate) [2] | k(IAM) retention factor [3] | logkIAM [3] | RP (Rf from RP-2 TLC plate) [4] |
| --- | --- | --- | --- | --- | --- |
| CCCC(=O)Nc1ccc(OCC(O)CNC(C)C)c(C(C)=O)c1 (stereo not shown) [acebutolol] | 0.26 |  |  |  |  |
| O=C(O)COC(=O)Cc1ccccc1Nc1c(Cl)cccc1Cl [aceclofenac] | 0.99 | 0.89 | 2.63 | 0.42 |  |
| CC(=O)Nc1nnc(S(N)(=O)=O)s1 [acetazolamid] | 0.98 |  |  |  | 0.97 |
| Nc1nc2c(ncn2COCCO)c(=O)[nH]1 [aciclovir] | 0.21 |  | 0.09 | -1.04 | 0.99 |
| Oc1ncnc2[nH]ncc12 [allopurinnol] |  | 0.89 |  |  | 0.97 |
| Cc1nnc2n1-c1ccc(Cl)cc1C(c1ccccc1)=NC2 [alprazolam] | 0.8 |  | 3.14 | 0.50 |  |
| CCCCc1oc2ccccc2c1C(=O)c1cc(I)c(OCCN(CC)CC)c(I)c1 [amiodarone] |  |  |  |  | 0.33 |
| CCOC(=O)C1=C(COCCN)NC(C)=C(C(=O)OC)C1c1ccccc1Cl (stereo not shown) [amlodipine] |  |  | 98.90 | 2.00 | 0.61 |
| CC(C)NCC(O)COc1ccc(CC(N)=O)cc1 (stereo not shown) [atenolol] |  | 0.34 |  |  | 0.58 |
| CC(C)c1c(C(=O)Nc2ccccc2)c(-c2ccccc2)c(-c2ccc(F)cc2)n1CC[C@@H](O)C[C@@H](O)CC(=O)O [atorvastatin] |  |  |  |  | 0.8 |
| CC(C)NCC(O)COc1ccc(CCOCC2CC2)cc1 (stereo not shown) [betaxolol] | 0.5 | 0.66 |  |  | 0.27 |
| O=C1CC2(CCCC2)CC(=O)N1CCCCN1CCN(c2ncccn2)CC1 [buspirone] |  | 0.57 | 7.00 | 0.84 |  |
| Cn1c(=O)c2c(ncn2C)n(C)c1=O [caffeine] |  | 0.82 | 0.18 | -0.75 |  |
| C[C@H](CS)C(=O)N1CCC[C@H]1C(=O)O [captopril] |  | 0.77 | 0.01 | -2.19 |  |
| O=C(N[C@H](CO)[C@H](O)c1ccc([N+](=O)[O-])cc1)C(Cl)Cl [chloramphenikol] |  | 0.99 | 1.08 | 0.03 | 0.89 |
| CCN(CC)CCCC(C)Nc1ccnc2cc(Cl)ccc12 (stereo not shown) [chloroquine] | 0.55 |  |  |  |  |
| O=C(O)c1cn(C2CC2)c2cc(N3CCNCC3)c(F)cc2c1=O [ciprofloxacin] |  | 0.11 |  |  | 0.38 |
| CN(C)CCCC1(c2ccc(F)cc2)OCc2cc(C#N)ccc21 (stereo not shown) [citalopram] | 0.8 |  |  |  |  |
| CN(C)CCCN1c2ccccc2CCc2ccc(Cl)cc21 [clomipramine] |  | 0.33 |  |  |  |
| Clc1ccc2c(c1)CCc1cccnc1C2=C1CCNCC1 [desloratidine] |  |  | 50.45 | 1.70 |  |

| Molecule | PB (protein binding) [1] | NP (Rf from NP TLC plate) [2] | k(IAM) retention factor [3] | logkIAM [3] | RP (Rf from RP-2 TLC plate) [4] |
| --- | --- | --- | --- | --- | --- |
| C[C@H]1O[C@@H](O[C@H]2[C@@H](O)C[C@H](O[C@H]3[C@@H](O)C[C@H](O[C@H]4CC[C@@]5(C)[C@H](CC[C@@H]6[C@@H]5C[C@@H](O)[C@]5(C)[C@@H](C7=CC(=O)OC7)CC[C@]65O)C4)O[C@@H]3C)O[C@@H]2C)C[C@H](O)[C@@H]1O [digoxin] |  |  | 3.69 | 0.57 |  |
| COc1cc2nc(N3CCN(C(=O)C4COc5ccccc5O4)CC3)nc(N)c2cc1OC (stereo not shown) [doxazosin] |  |  | 0.22 | -0.66 | 0.75 |
| CN(C)CCC[C@@]1(c2ccc(F)cc2)OCc2cc(C#N)ccc21 [escitalopram] | 0.56 |  | 32.08 | 1.51 |  |
| NC(N)=Nc1nc(CSCCC(N)=NS(N)(=O)=O)cs1 [famotidine] |  | 0.7 |  |  | 0.98 |
| OC(Cn1cncn1)(Cn1cncn1)c1ccc(F)cc1F [fluconazole] |  | 0.87 |  |  | 0.9 |
| COCCCC/C(=N\OCCN)c1ccc(C(F)(F)F)cc1 [fluvoxamine] |  | 0.34 |  |  |  |
| CC(=O)OCC(=O)[C@@]1(O)CC[C@H]2[C@@H]3CCC4=CC(=O)CC[C@]4(C)[C@H]3[C@@H](O)C[C@@]21C [hydrocortisone acetate] | 0.95 | 0.96 | 2.82 | 0.45 |  |
| CC(C)Cc1ccc(C(C)C(=O)O)cc1 (stereo not shown) [ibuprofen] |  |  | 0.86 | -0.07 |  |
| CC(C(=O)O)c1cccc(C(=O)c2ccccc2)c1 (stereo not shown) [ketoprofen] |  |  | 0.20 | -0.71 |  |
| O=C(O)COCCN1CCN([C@H](c2ccccc2)c2ccc(Cl)cc2)CC1 [levocetrizine] |  | 0.63 |  | 0.58 |  |
| CN(C)C(=O)C(CCN1CCC(O)(c2ccc(Cl)cc2)CC1)(c1ccccc1)c1ccccc1 [loperamide] |  | 0.68 |  |  | 0.75 |
| Cc1cnc(NC(=O)C2=C(O)c3ccccc3S(=O)(=O)N2C)s1 [meloxicam] |  | 0.99 | 0.49 | -0.31 |  |
| COC(=O)c1ccc(O)cc1 [methyl paraben] |  | 0.97 | 1.94 | 0.29 | 0.85 |
| CCN(CC)CCNC(=O)c1cc(Cl)c(N)cc1OC [metoclopramide] |  |  | 6.16 | 0.79 |  |
| Nc1cc(N2CCCCC2)nc(N)[n+]1[O-] [minoxidil] |  | 0.43 |  |  |  |
| CC(C)(O)c1ccccc1CC[C@@H](SCC1(CC(=O)O)CC1)c1cccc(/C=C/c2ccc3ccc(Cl)cc3n2)c1 [montelukast] |  |  | 99.10 | 2.00 |  |
| COc1ccc2cc([C@H](C)C(=O)O)ccc2c1 [naproxen] |  | 0.92 |  |  | 0.88 |
| CC1COc2c(N3CCN(C)CC3)c(F)cc3c(=O)c(C(=O)O)cn1c23 (stereo not shown) [ofloxacin] | 0.32 | 0.24 |  |  |  |
| Cc1cc2c(s1)Nc1ccccc1N=C2N1CCN(C)CC1 [olanzapine] |  |  | 20.31 | 1.31 |  |
| O=C1Nc2ccc(Cl)cc2C(c2ccccc2)=NC1O (stereo not shown) [oxazepam] |  | 0.93 | 4.78 | 0.68 | 0.83 |

| Molecule | PB (protein binding) [1] | NP (Rf from NP TLC plate) [2] | k(IAM) retention factor [3] | logkIAM [3] | RP (Rf from RP-2 TLC plate) [4] |
| --- | --- | --- | --- | --- | --- |
| CCN(CC)CC#CCOC(=O)C(O)(c1ccccc1)C1CCCCC1 (stereo not shown) [oxybutinin] |  | 0.68 | 49.68 | 1.70 | 0.29 |
| CC(C)NCC(O)COc1cccc2[nH]ccc12 (stereo not shown) [pindolol] | 0.4 | 0.53 | 6.09 | 0.78 |  |
| CCC1(c2ccccc2)C(=O)NCNC1=O [primidone] |  | 0.9 |  |  | 0.93 |
| CCCNCC(O)COc1ccccc1C(=O)CCc1ccccc1 (stereo not shown) [propafenone] |  | 0.57 |  |  | 0.56 |
| CC(C)NCC(O)COc1cccc2ccccc12 (stereo not shown) [propranolol] |  | 0.54 | 28.09 | 1.45 |  |
| CCCc1cc(=O)[nH]c(=S)[nH]1 [propylthiouracil] | 0.82 |  |  |  |  |
| CN[C@@H](C)[C@@H](O)c1ccccc1 [pseudoephedrine] |  |  | 2.21 | 0.34 |  |
| CC(N)C12CC3CC(CC(C3)C1)C2 (stereo not shown) [rimantadine] |  | 0.92 |  |  | 0.95 |
| Cc1nc2n(c(=O)c1CCN1CCC(c3noc4cc(F)ccc34)CC1)CCCC2 [risperidone] |  |  | 4.83 | 0.68 |  |
| CC(C)c1nc(N(C)S(C)(=O)=O)nc(-c2ccc(F)cc2)c1/C=C/[C@@H](O)C[C@@H](O)CC(=O)O [rosuvastatin] |  | 0.9 | 0.96 | -0.02 | 0.92 |
| CCC(C)(C)C(=O)O[C@H]1C[C@@H](C)C=C2C=C[C@H](C)[C@H](CC[C@@H]3C[C@@H](O)CC(=O)O3)[C@H]21 [simvastatin] |  | 0.19 |  |  | 0.66 |
| CN1C(=O)C(O)N=C(c2ccccc2)c2cc(Cl)ccc21 (stereo not shown) [temazepam] |  |  | 6.74 | 0.83 |  |
| Cn1c(=O)c2[nH]cnc2n(C)c1=O [theophylline] |  |  | 0.12 | -0.94 |  |
| CCS(=O)(=O)CCn1c([N+](=O)[O-])cnc1C [tinidazole] | 0.12 | 0.89 |  |  |  |
| Cc1ccc(O)c([C@H](CCN(C(C)C)C(C)C)c2ccccc2)c1 [tolterodine] |  |  | 0.21 | -0.68 |  |
| COc1cccc(C2(O)CCCCC2CN(C)C)c1 (stereo not shown) [tramadol] | 0.2 |  |  |  |  |
| CCCCC(=O)N(Cc1ccc(-c2ccccc2-c2nnn[nH]2)cc1)[C@H](C(=O)O)C(C)C [valsartan] | 0.955 |  | 0.08 | -1.10 |  |
| Cc1ccc(-c2nc3ccc(C)cn3c2CC(=O)N(C)C)cc1 [zolpidem] |  |  | 2.60 | 0.42 |  |
| PABA |  |  | 0.01 | -1.88 |  |
| gentamycin |  | 0.96 |  |  | 0.911 |
